PubChem BioAssay AID179 (DTP/NCI, 2004)
pEC50, pIC50: −log10 of the molar value. Calls of active or inactive are those of the source.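 How the source made its calls: active means compounds giving half or more protection of infected cells from virus-caused growth loss, again on retest; inactive means the rest.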

Test system: CEM cells HIV-1 protection, formazan growth assay
Assay: NCI AIDS Antiviral Assay
Conditions: for pIC50: measured here: growth of uninfected CEM cells
How it was run: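 Human CEM cells, uninfected and HIV-1-infected, exposed to five drug concentrations; growth measured by soluble formazan assay and scored as percent protection from infection, with protecting compounds retested.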

Structure (SMILES)	pEC50	pIC50	outcome
CN(C)CCCCC1c2ccccc2Sc2ccccc21	< 3.70	5.06	
CC1(C)C=C(/C=N/Nc2ccccc2)C(C#N)=C(O)C1(C#N)C#N	< 3.70	4.63	
CN(C)CCSC(=Nc1ccccc1)n1cccc1	< 4.58	< 4.58	
NC(=O)c1ncn(C/C=C/CO)c1N	< 3.70	< 3.70	
O=c1[nH]nnc2cc(Cl)ccc12	< 3.70	< 3.70	
COc1cc(NS(=O)(=O)c2ccc(NC(=O)c3ccccc3SC(=O)CCCC[n+]3ccccc3)cc2)nc(OC)n1	4.57	4.22	
CCOC(=O)NC(O)C(Cl)(Cl)Cl (stereo not drawn)	< 3.70	< 3.70	
CN(C)CC/[N+]([O-])=C(/c1ccccc1)C12CC3CC(CC(C3)C1)C2			inactive
O=C(O)COc1ccc(Cl)cc1Cc1cc(Cl)ccc1OCC(=O)O	< 3.70	4.05	
Clc1cccc(Sc2ccccc2)c1	< 4.63	< 4.63	
COCCCNC(=O)C1C(=O)N(CCCOC)C(=O)/C1=N\N (stereo not drawn)	< 3.67	< 3.67	
c1cnc2c(c1)ccc1cccnc12	< 3.70	5.93	
Cc1ccc([N+](=O)[O-])c2c(NCCC[N+](C)(C)[O-])c3ccccc3nc12	< 5.70	6.50	
COc1ccc(CC(NC(=O)NSc2ccccc2)C(=O)NC2C(CO)OC(n3cnc4c(N(C)C)ncnc43)C2O)cc1 (stereo not drawn)	< 3.70	4.06	
COC1=CCC=C(C[C@@H]2NCCc3cc(OC)c(OC)cc32)C1	< 3.70	< 3.70	
CN(C)c1ccc(/C=C(\C#N)c2cccc(Cl)c2)cc1	< 3.70	7.20	
CC(C)C(C(=O)O)C(=O)O	< 3.70	< 3.70	
C=C(/C=N/N(C)C)CC1c2c(O)ccc3cccc(c23)N1S(=O)(=O)c1ccc(C)cc1 (stereo not drawn)	< 4.97	< 4.97	
Cc1cc(O)c(/C=N/c2nc(-c3cccc([N+](=O)[O-])c3)cs2)c(=O)o1	< 3.70	4.45	
CC(C)=CC1CC(n2cc(C)c(=O)[nH]c2=O)ON1CCO (stereo not drawn)	< 3.70	< 3.70	
CC1=NS(=O)(=O)NC(C)(C)C1	< 3.70	< 3.70	
O=C(NCCN1CCCCC1)c1ccc(Br)cc1	< 3.70	< 3.70	
NC1C2CN3CCC(O2)C13 (stereo not drawn)			inactive

Structure (SMILES)	pEC50	pIC50	outcome
COc1ccc(C2=C/C(=C3\C(=O)Oc4ccccc4C3=O)SS2)cc1	< 3.70	< 3.70	
N#C[C@H](c1nc2ccccc2s1)c1nc2ccccc2nc1Cl	< 4.00	< 4.00	
COc1ccc(Nc2ccc([N+](=O)[O-])c3nonc23)cc1	< 4.11	< 4.11	
O=C(O)CCSCCCCCCCCCCSCCC(=O)O	< 4.13	< 4.13	
CCOP(=O)(CCCC(O)CNc1cc(Cl)nc(N)n1)OCC (stereo not drawn)	< 3.70	< 3.70	
O=C1C(=O)c2ccccc2C(O)=C1Sc1ccccc1	< 3.70	4.87	
CCNC(C)(C)C(SSSC(c1ccc(Cl)cc1)C(C)(C)NCC)c1ccc(Cl)cc1 (stereo not drawn)	< 3.70	5.04	
CCOc1ccc(/C(Cl)=C(\C=O)c2ccc(OC)c(OC)c2)cc1OCC	< 4.59	4.85	
CCC1CCc2c(c(=O)oc3c2cc(OC)c2cccc(OC)c23)C1 (stereo not drawn)	< 3.96	4.06	
CC(C)C1=Cc2ccc3c(c2C(=O)C1=O)CCCC3(C)C	< 4.73	5.53	
CCO[C@@H]1OC(=O)[C@H]2C(c3ccc(Cl)cc3Cl)=NO[C@@H]12	< 4.64	< 4.64	
CCOC(=O)c1cc2c(nc1NCc1ccc(OC)c(OC)c1)/C(=C/c1ccccc1)CCCC2	< 3.70	4.99	
CC(C)[C@@H]1ON1C(C)c1ccccc1 (stereo partly drawn)	< 3.70	< 3.70	
CC(C)(C)n1c(=O)n2c(-c3ccccc3)c(-c3ccccc3)n2c1=O	< 3.70	4.59	
C/C=C1\CN(C)C[C@@]2(C(=O)OC)Cc3c(n(OC)c4ccccc34)C(=O)C[C@@H]12	< 3.87	4.01	
O=C(O)c1ccc2c(c1)C(=O)c1ccccc1C2=O	< 3.70	4.01	
CCOC(=O)C1=C(SC)SC(C(=O)OCC)C2C=C(C)C=CN12 (stereo not drawn)	< 3.99	4.34	
C#CCC(C#C)N(CCc1ccsc1)Cc1ccccc1 (stereo not drawn)	< 3.70	4.17	
CC1CCC23COC(=O)C2C(O)CCC3C1(C)CC(O)c1ccoc1 (stereo not drawn)	< 3.84	< 3.84	
NC(=O)N(O)c1cccc(Br)c1	< 3.70	3.84	
CCCC(=O)C1=C(O)C(Cc2c(O)c(C)c(O)c(C(=O)CCC)c2O)=C(O)C(C)(C)C1=O	< 3.70	4.97	
O=C1NC2(CCN(Cc3ccccc3)CC2)Oc2ccccc21	< 3.70	< 3.70	
